# In US20030171333A1, “Pharmaceutical composition containing at least a polymer combined with or conjugated to at least a phenylalkylcarboxylic acid salt, conjugate polymers and uses thereof” (priority 2000, published 2003):
# How the values were obtained:
# MCF-7 cells [1] = assay: Cell growth assay, cell counting on Coulter Counter ZM; assay type: cell-based, human
# Protocol: The MCF-7 tumor line is a line of estrogen-sensitive epithelial cells originating from pleural metastases of an infiltrating ductule breast adenocarcinoma. They are cultured in Dulbecco's Modified Eagle Medium (DMEM), supplemented with 10% of fetal calf serum (FCS), 1% of glutamine and 1% of sodium pyruvate. The cells are stored in cryotubes in frozen form in liquid nitrogen. The cryotubes are partially thawed in a water bath at 37° C. 2 ml of complete culture medium are added and the cell suspension is then mixed. Culture flasks (COSTAR® T25) are prepared with culture medium beforehand. The cell suspension is added to the flasks and placed in an incubator at 37° C. with 5% of CO2.
# Cells sampled in the exponential growth phase are seeded in 24-well plates in a proportion of 15000 cells per ml and per well, this being in a DMEM medium supplemented with 10% FCS, 1% of sodium pyruvate and 1% of glutamine.
# After incubation for 24 hours, the various concentrations of products to be tested are added in the proportion of 4 wells per concentration. These products are diluted in a DMEM medium containing 2% of FCS, 1% of sodium pyruvate and 1% of glutamine, so as to obtain the desired concentrations. The negative control is prepared without the addition of product.
# After incubation for 72 hours, the cells are detached and then counted using a Coulter Counter ZM® set on the parameters predefined for MCF-7 cells. The diameter (threshold) of detection is 5 for an attenuation of 32. The latter determines the number of particles of desired diameter contained in the sample. By taking into account the dilution made, the number of cells per ml of initial cell suspension is determined from this value.
# %I=[1−(net increase in treated cells/net increase in untreated cells)]×100
# The net increase in untreated cells corresponds to the number of cells contained in the control wells (DMEM medium containing 2% FCS) subtracted with the number of cells at D0 (number of cells at the time the products are added to the wells). […]
# MCF-7 cells [2] = assay: MTT growth assay; assay type: cell-based, human
# Protocol: MTT (3-(4,5-dimethylthiazol-2-yl)-2,5-diphenyl-tetrazolium bromide) has the property that it can be reduced in alkaline medium, thus giving a colored compound, blue formazan. Mitochondria, by virtue of their membrane-bound dehydrogenases, are capable of carrying out this reduction. As a result, the number of functional mitochondria, and indirectly the number of live cells, can be quantified as a function of the intensity of the coloration.
# (§1) Cells sampled in the exponential growth phase are seeded in 96-well plates in a proportion of 5 000 cells per 200 μl, this being in a DMEM medium supplemented with 2% of FCS, 1% of glutamine and 1% of sodium pyruvate. After incubation for 24 hours, the various concentrations of products to be tested are added in a proportion of 3 wells per concentration. A negative control is prepared without the addition of product.
# (§2) After incubation for 72 hours, the cells are washed twice with a buffered saline solution and then 100 μl of MTT are added to each well. After 4 hours of incubation, 100 μl of DMSO are added to the wells before reading the plate 570 nm using a plate reader.
# The percentage inhibition I is determined using the equation previously described. The net increase in untreated cells this time corresponds to the cell density contained in the control wells minus that of D0. […]
# MCF-7ras cells [3] = assay: MTT growth assay with isobolic combination index; assay type: cell-based, human; settings: for NaPA Bc / NaPA Be: used alone
# Protocol: as §1, §2
# The percentage inhibition I is determined using the equation previously described. The net increase in untreated cells this time corresponds to the cell density contained in the control wells minus that of D0. As regards the net increase in treated cells, it corresponds to the treated cell density at D72 subtracted with that of D0.
# MCF-7 cells transfected with the Ha-ras oncogene (MCF-7ras cells) were cultured in DMEM medium supplemented with 10% of FCS, 2 mM of L-glutamine, 1 mM of sodium pyruvate, 50 units/ml of penicillin and 50 μg/ml of streptomycin, at a temperature of 37° C. and in a humid atmosphere with 5% of CO2.
# This was carried out in 96-well microplates under the same conditions as those given above in example 17.
# In this example, the effects of the following products, alone or in combination, at various concentrations, were studied on MCF-7ras cell proliferation after incubation for 72 hours:
# The percentage inhibition I was calculated as described above in example 17.
# The effect of synergy between the dextrans DMCB7 or LS4 DMCB or LS17 and NaPA was calculated using the following isobolic equation (T. Mosmann, J. Immunol. Methods, 1983, 65, 55-63): […]
# in which Ac and Bc correspond, respectively, to the concentration of dextran derivative and NaPA used in combination, and Ae and Be correspond to the concentration of each of these two compounds used alone and inducing the same effect; D is the combination index and Dm is the mean combination index. When D or Dm is less than 1, then the combination of the two products has a synergistic effect.
# When the concentration of dextran derivative used alone (Ae), making it possible to obtain a percentage inhibition close to that which is obtained when the dextran derivative is used in combination with NaPA, is very high and such that it cannot be determined precisely, then the ratio Ac/Ae tends toward zero and, consequently, D=Bc/Be. Such concentrations of dextran derivatives (Ae) have been indicated in tables II, III and IV below as simply being greater than the concentration given for Ac.
# Each experiment was repeated 3 times so as to be able to calculate the statistical significance (P) of the combination index (D or Dm) compared to the additive combination index for the effects (D=1) using the Student's t test.
# MCF-7ras cells [4] = assay: Cell cycle analysis (BrdU/propidium iodide, FACScan); assay type: cell-based, human; settings: NaPA alone 10 mM, 48 hours
# Protocol: To analyze the cell cycle, the cells were seeded in plates in a proportion of […] and per well in DMEM medium supplemented with 2% of FCS. After culturing for 24 hours, the various tested products were added.
# After 72 hours, the MCF-7ras cells were incubated in the presence of BrdU for 4 hours. The cells were then washed with PBS buffer and fixed with 70% ethanol. […] The cells were then centrifuged and resuspended in a staining solution containing […] of propidium iodide (Boehringer Mannheim) for 10 min. The stained cells are then analyzed with a FACScan (Coulter).
# Analysis of the distribution of MCF-7ras cells treated with NaPA alone (10 mM), the dextran LS4 DMCB alone (18.5 mM) and a combination thereof (NaPA: 10 mM; LS4 DMCB: 18.5 mM) in the various phases of the cell cycle was carried out after 48 hours of treatment.
# MCF-7ras tumors = assay: Antitumor effect in vivo, tumors induced by inoculation of MCF-7ras cells in athymic mice; settings: NaPA 40 mg/kg, injected twice a week, after 7 weeks of treatment; P=0.049
# Protocol: Fifty 3-week-old female athymic mice from the Laboratoire Harlan (Gannat, France) were kept in a temperature-controlled room and subjected to a cycle of light/dark alternating every 12 hours.
# Cells of the MCF-7ras tumor line as described above in example 17 were cultured in a DMEM medium supplemented with 10% of FCS until 80% confluency was reached. After centrifugation, the cells were resuspended in DMEM supplemented with 10% of FCS.
# Each mouse was then inoculated subcutaneously with these cells, in the proximity of the mammary gland, in a proportion of 5×10^6 cells per animal.
# The volume of the tumors (V) was calculated in the following way:
# V=(4/3)π(r1)^2)r2); r1 representing the smallest radius of the tumor and r2 the largest radius of the tumor.
# Four weeks after inoculation, solutions of NaPA (40 mg/kg) or of dextran LS4 DMCB (150 mg/kg) or of a combination of NaPA (40 mg/kg) and dextran LS4 DMCB (150 mg/kg), prepared in 0.1 ml of sodium chloride, were injected into the mice, twice a week, for 7 weeks for the solutions of NaPA alone and of dextran LS4 DMCB alone. The injections of the combination of NaPA and dextran LS4 DMCB were stopped after six weeks.
# For each solution tested, 10 mice chosen randomly from the 50 mice initially inoculated were subjected to the treatment. […]
# The volume of each tumor was measured once a week. […]
# [5] = system: 1205LU human melanoma cells; assay: Antitumor effect in vivo, 1205LU human melanoma in athymic mice
# Protocol: A group of 14 female athymic mice were subcutaneously inoculated, according to the protocol described above in example 17, with 1205LU human melanoma cells, in a proportion of 10^6 cells per animal.
# For a period of five weeks, and at a rate of twice a week, a first group of 4 mice were given an injection of 100 μl of sodium chloride so as to serve as a control group, a second group of 4 mice were given an injection of LS17-NaPAC at a dose of 60 mg/kg/100 μl, and a third group of 6 mice were given an injection of NaPA at a dose of 6.9 mg/kg/100 μl.
# The volume of each tumor was measured before the first injection and then once a week for the five weeks of treatment. It was calculated according to the equation defined above in example 17.
# Furthermore, at the end of treatment, the mice were sacrificed so as to be able to determine the mass of each of the tumors. […] The treatment with NaPA alone at a dose of 6.9 mg/kg therefore appears to be nonsignificant, contrary to that with LS17-NaPAC at an equivalent dose of 60 mg/kg (p<0.005).
# HUVEC cells = assay: HUVEC cell proliferation (MTT), antiangiogenic activity in vitro; assay type: cell-based; settings: tested alone at concentrations equivalent to LS17-NaPAC, 72 hours
# Protocol: Immortalized healthy endothelial cells (HUVEC) were seeded in a proportion of 10000 cells per well and per 100 μl of DMEM medium supplemented with 2% of FCS, in 96-well microplates (COSTAR®). The number of cells was determined after having prepared a standard range.
# After culturing for 24 hours, the HUVEC cells were incubated with the various concentrations of the products to be tested prepared in DMEM medium containing 2% of FCS. The absorbance at the time the products were added was measured and compared to the standard range, so as to determine the number of cells.
# After culturing for 72 hours, the cell supernatant is removed and 1 wash with PBS buffer containing calcium and magnesium is carried out. 100 μl of a solution of MTT is then added and the cells are incubated for 4 hours. After 4 hours of incubation, the MTT is removed and the crystals which have formed are dissolved with DMSO for 10 minutes with agitation. Absorbance is measured at 570 nm.
# The concentration of 10 μg/ml of LS17-NaPAC tested is compared to a concentration of NaPA alone of 1.3216 μg/ml or to a concentration of 8.7 μg/ml of LS17-DMCB alone.
compound,measurement,setting,value
"O=C([O-])Cc1ccccc1.[Na+] [NaPA, sodium phenylacetate]",IC50,"MCF-7 cells [1]; Homo sapiens, MCF7, 72 h, read-out: IC50 (minimum dose causing arrest of proliferation of 50% of cells)",5 mM
same,inhibition of cell proliferation,"MCF-7 cells [1]; concentrations greater than 30 mM, reflects cytotoxic effect",exceeds 100%
same,concentration of NaPA alone giving this inhibition,MCF-7 cells [1]; same inhibition as maximum effect of NaPAC MF6,50 mM
same,effect on MCF-7 cells,"MCF-7 cells [2]; concentrations less than 1 mM, MTT",does not appear to have a significant effect
same,concentration of free NaPA giving this same inhibition,MCF-7 cells [2]; same inhibition (40 to 50%) as the combination,5 mM
same,inhibition of MCF-7ras cell proliferation,"MCF-7ras cells [3]; NaPA alone at 30 and 40 mM, 72 h",70%
same,NaPA Bc,MCF-7ras cells [3]; same effect as DMCB7 0.05 mM + NaPA 5 mM (10% inhibition),1 mM
same,NaPA Bc,MCF-7ras cells [3]; same effect as DMCB7 0.3 mM + NaPA 5 mM (20% inhibition),5 mM
same,NaPA Bc,MCF-7ras cells [3]; same effect as DMCB7 1 mM + NaPA 5 mM (38% inhibition),10.7 mM
same,NaPA Bc,MCF-7ras cells [3]; same effect as DMCB7 1.27 mM + NaPA 5 mM (42% inhibition),12 mM
same,NaPA Bc,MCF-7ras cells [3]; same effect as DMCB7 1.7 mM + NaPA 5 mM (45% inhibition),13 mM
same,NaPA Bc,MCF-7ras cells [3]; same effect as DMCB7 2 mM + NaPA 5 mM (50% inhibition),20 mM
same,NaPA Bc,MCF-7ras cells [3]; same effect as DMCB7 5 mM + NaPA 5 mM (60% inhibition),29 mM
same,NaPA Bc,MCF-7ras cells [3]; same effect as DMCB7 7 mM + NaPA 5 mM (70% inhibition),36 mM
same,NaPA Bc,MCF-7ras cells [3]; same effect as LS4 3.7 mM + NaPA 0.75 mM (51.4% inhibition),22 mM
same,NaPA Bc,MCF-7ras cells [3]; same effect as LS4 7.4 mM + NaPA 1.5 mM (54.8% inhibition),23 mM
same,NaPA Bc,MCF-7ras cells [3]; same effect as LS4 14.8 mM + NaPA 3 mM (55% inhibition),23.3 mM
same,NaPA Bc,MCF-7ras cells [3]; same effect as LS4 18.5 mM + NaPA 4 mM (60.2% inhibition),29.3 mM
same,NaPA Be,MCF-7ras cells [3]; same effect as LS17 1.53 mM + NaPA 0.5 mM (0% inhibition),0 mM
same,NaPA Be,MCF-7ras cells [3]; same effect as LS17 3 mM + NaPA 1 mM (16% inhibition),0.76 mM
same,NaPA Be,MCF-7ras cells [3]; same effect as LS17 6 mM + NaPA 2 mM (17.3% inhibition),0.83 mM
same,NaPA Be,MCF-7ras cells [3]; same effect as LS17 12 mM + NaPA 4 mM (17.3% inhibition),0.83 mM
same,distribution of cells in the phases of the cell cycle,MCF-7ras cells [4],blocking of the cells in the G0/G1 phase
same,inhibition of tumor cell growth,MCF-7ras tumors,59%
same,mass of the tumors vs untreated mice,"[5]; NaPA 6.9 mg/kg, end of treatment",no significant difference
same,effect on tumor growth (tumor volume),"[5]; NaPA 6.9 mg/kg/100 μl, twice a week, five weeks",does not appear to have a significant effect
same,inhibitory effect on HUVEC cell proliferation,HUVEC cells,do not appear to exhibit an inhibitory effect
